We go through 5 compounds from patent US6413541B1, “Disintegrating tablet in oral cavity and production thereof” (Dainippon Pharmaceutical Co., Ltd., priority 2000, dated 2002).

Read-outs that look alike come from different tables or passages of the source.

How the values of series [1] were obtained:
These saccharides can be used alone or in a mixture of two or more of these saccharides, and can usually be contained in an amount of about 0.1 to about 20% by weight, preferably in an amount of about 0.5 to about 10% by weight in the present tablet.
Purified water at 25° C. (20 ml) was put into a beaker, and thereto was added each saccharide under stirring. Xylitol, sorbitol, glucose and sucrose were added in portions of 1 g, and erythritol was added in portions of 0.5 g, and lactose and mannitol were added in portions of 0.1 g, each. The mixture was stirred for one hour, and the dissolved amount of each saccharide was determined. The amount dissolving in 100 ml of water was converted and used as solubility of the saccharide in the present specification.

The conditions of series [2]: in 100 ml of purified water at about 25° C.; Merck Index, 12th ed., 10220 (1996); cited from earlier work.

On to `OC[C@@H](O)[C@@H](O)CO` [erythritol], for which the solubility result in series [1] was “about 47.5 g”. The same measure, in the same setting: under `OC[C@@H](O)[C@@H](O)[C@H](O)[C@@H](O)CO` [sorbitol] stands “about 130 g”.

Regarding `OC[C@H]1O[C@@](CO)(O[C@H]2O[C@H](CO)[C@@H](O)[C@H](O)[C@H]2O)[C@@H](O)[C@@H]1O` [sucrose], the solubility entry in series [1] is “about 170 g”. In the case of `OC[C@@H](O)[C@H](O)[C@@H](O)CO` [xylitol], the solubility entry in series [1] is “about 135 g”. Consider `O=C[C@H](O)[C@@H](O)[C@H](O)CO` [xylose], for which the solubility entry in series [2] is given as “about 125 g”.
